Laboratory results published in patent publication US20250235501A1, “Methods and Compositions for Treating or Preventing Neurological Injury or Neurological Disorders” (University of Connecticut, priority 2024, published 2025).

Tested on: ERK1/2 and CREB activities (pERK1/2, pCREB)
Assay: ERK1/2 and CREB activities in cultured neurons (WB)
Type: cell-based, mouse
Details: WT neurons pre-incubated with peptide overnight, vs control
Method: FIGS. 7F-7H show the effects of TAT-EE3 on ERK1/2 and CREB activities in cultured neurons isolated from gM2KO and nM2KO mice, and WT littermates. WT neurons were treated with TAT-EE3 or TAT-SC for overnight before the experiments. Neurons were incubated for 1 h before experiments with 1) control (PBS), 2) NMDA (10 μM) to activate synaptic and extrasynaptic NMDARs, and 3) 4-AP 2.5 mM plus biccuculine (Bic) 50 μM (4-AP/Bic) to activate synaptic NMDARs. […] FIGS. 7G and 7H show the quantification of the active CERB and ERK1/2 in each group under three different treatment conditions (***, p<0.001; ANOVA, Bonferroni's test; mean±SEM, n=3).
Mice pups at P0 were euthanized based on animal protocol. Whole brain was dissected out immediately and immersed in ice-cold Hank's Balanced Salt Solution (HBSS). Meninges were removed thoroughly, and tissue of different brain areas was taken based on purposes. Brain tissue was cut into small pieces and digested with 0.25% trypsin (Thermal Fisher Scientific, 15090-046) in HBSS at 37° C. for 20 min. Digestion solution was quickly removed, and tissue pellets are washed with Neurobasal® Medium (Thermal Fisher Scientific, 21103-049) for 3 times. Cells were resuspended with appropriate amount of Neurobasal® Medium supplemented with 2% B27® supplement (Thermal Fisher Scientific, 17504-044), 3% horse serum (Thermal Fisher Scientific, 16050114), 0.25% L-glutamine (Thermal Fisher Scientific, 25030-081) and 1% penicillin/streptomycin (Thermal Fisher Scientific, 15140-122). Isolated cells were counted and plated on coverslips pre-coated with poly-L-lysine (Sigma-Aldrich, P4707) at a density about 500×10^3 cells/cm2 for OGD and H2O2 treatment, and 100×10^3 cells/cm2 for current recording. Cytosine arabinoside (Sigma-Aldrich, C1768) was added to maintain a concentration at 1 μM to inhibit the proliferation of non-neuronal cells. 24 h after plating, culture medium was changed to Neurobasal® Medium supplemented with 2% B27® supplement, 0.25% L-glutamine and 1% penicillin/streptomycin. The concentration of Cytosine arabinoside (araC) was increased to 2 μM. Medium was changed every 3 days. OGD and H2O2 treatment was conducted at 7th day of culture, and current recording was conducted at 7th, 10th and 14th day of culture.
NP-40/Triton lysis buffer ([…], 1% Triton™ X-100, 150 mM NaCl, 1 mM EDTA, 50 mM Tris, pH=8.0) containing proteinase inhibitors and phosphatase inhibitors was used to lyse both cultured cells and frozen brain tissue. […] Protein concentration was measured using Pierce™ Rapid Gold BCA Protein Assay Kit.
30-50 μg of total protein was loaded and separated proteins were transferred to Nitrocellulose membranes. […] Band intensity was quantified using ImageJ software and normalized with appropriate loading controls.

[1] = 4-AP 2.5 mM plus bicuculline 50 μM 1 h

TAT-EE3: membrane permeable disrupting peptide, sequence YGRKKRRQRRREEDTDSSEEMLALAEE (SEQ ID NO: 4)
increased: pCREB level after 4-AP/Bic treatment [1] | pERK1/2 level after 4-AP/Bic treatment [1] | pCREB level after NMDA treatment (NMDA 10 μM 1 h) | pERK1/2 level after NMDA treatment (NMDA 10 μM 1 h)
